Reference: ChEMBL document CHEMBL5604063, “ASAP - DENV-2 NS2B-NS3 protease fluorescence dose response” (2024)
Values joined by “and” are separate entries in the source; they are usually repeats but may differ in a detail not shown here. Equal values may be shown once.

Target: Genome polyprotein (dengue virus type 2, UniProt P29990)
Type: functional, Thailand/16681/1984

Sequence of Genome polyprotein (P29990 1346-1475 limits assumed): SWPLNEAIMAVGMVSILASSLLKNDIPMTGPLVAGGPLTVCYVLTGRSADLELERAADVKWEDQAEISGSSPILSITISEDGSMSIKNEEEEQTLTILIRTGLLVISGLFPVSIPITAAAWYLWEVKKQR
Sequence of Genome polyprotein (P29990 1476-2093 limits assumed): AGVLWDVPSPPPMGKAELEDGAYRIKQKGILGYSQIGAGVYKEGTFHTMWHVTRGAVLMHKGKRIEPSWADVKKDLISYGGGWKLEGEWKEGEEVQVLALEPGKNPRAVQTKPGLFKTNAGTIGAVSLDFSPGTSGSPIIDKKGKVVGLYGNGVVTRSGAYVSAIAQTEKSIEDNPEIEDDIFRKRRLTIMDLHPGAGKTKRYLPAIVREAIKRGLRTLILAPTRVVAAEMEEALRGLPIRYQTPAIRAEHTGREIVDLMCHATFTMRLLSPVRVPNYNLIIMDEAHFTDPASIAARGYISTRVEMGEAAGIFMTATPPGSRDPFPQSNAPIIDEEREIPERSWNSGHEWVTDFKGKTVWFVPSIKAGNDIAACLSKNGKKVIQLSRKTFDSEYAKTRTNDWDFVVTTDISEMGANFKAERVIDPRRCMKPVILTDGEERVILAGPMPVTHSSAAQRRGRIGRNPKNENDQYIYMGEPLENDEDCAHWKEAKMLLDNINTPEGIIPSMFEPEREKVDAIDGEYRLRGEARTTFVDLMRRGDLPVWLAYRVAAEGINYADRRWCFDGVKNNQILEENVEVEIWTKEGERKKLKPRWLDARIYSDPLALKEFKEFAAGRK

Compound | IC50
c1ccc2c(CN3CCCc4cnccc4C3)n[nH]c2c1 | > 99.5 µM
NCc1cccc(NC(=O)[C@H](NS(=O)(=O)c2cccc(Cl)c2)c2ccc(OCc3ccccc3)cc2)c1 | > 99.5 µM
NCc1nccc(NC(=O)c2cc(Cl)cc(NC(=O)OCc3ccccc3)c2)n1 | > 99.5 µM
CCn1cc(C(=O)Nc2ccccc2)nc(N2CC[C@@H](CO)C2)c1=O | > 99.5 µM
O=C(Nc1cc(Cl)cc(C(=O)Nc2cccc(C3CCNCC3)c2)c1)OCc1ccccc1 | 20.5 µM and 20.3 µM
NCc1cccc(NC(=O)[C@@H]2C[C@@H]3CC[C@H]2N3C(=O)OCc2ccccc2)c1 | > 99.5 µM
CCCNC(=O)Cn1ccnc(N2CC[C@H](CO)C2)c1=O | > 99.5 µM
COc1cc(C(=O)O)c(S(=O)(=O)Nc2ccc(Oc3ccccc3Cl)cc2)cc1F | 30.3 µM
NCc1ccc(CNC(=O)c2cc(Cl)cc(NC(=O)OCc3ccccc3)c2)cc1 | > 99.5 µM
COc1ccc(C)cc1S(=O)(=O)N[C@@H](C(=O)Nc1cccc(CN)c1)c1ccc(OCc2ccccc2)cc1 | 96 µM
CN(C)Cc1cccc(-c2ccc(S(=O)(=O)Nc3ccc(Cl)cc3C(=O)O)cc2)c1 | > 99.5 µM
NCc1cccc(NC(=O)[C@@H](NS(=O)(=O)CCc2ccccc2)c2ccc(OCc3ccccc3)cc2)c1 | 72.8 µM
NC1(c2cccc(NC(=O)c3cc(Cl)cc(NC(=O)OCc4ccccc4)c3)c2)CCC1 | > 99.5 µM
NCc1cccc(NC(=O)[C@@]23C[C@@H](NC(=O)OCc4ccccc4)C[C@@H]2C3)c1 | > 99.5 µM
NCc1cccc(NC(=O)[C@H](NS(=O)(=O)C2CCCCC2)c2ccc(OCc3ccccc3)cc2)c1 | > 99.5 µM
Cn1ccc(-c2n[nH]cc2CN2CCC(c3nc4ccccc4s3)CC2)n1 | > 99.5 µM
NCc1cccc(NC(=O)C[C@@H](NC(=O)OCc2ccccc2)c2ccc3c(c2)OCO3)c1 | > 99.5 µM
O=C(O)c1cc(Cl)cc(Cl)c1S(=O)(=O)Nc1ccc(Oc2ccccc2Cl)cc1 | > 99.5 µM
O=C(O)c1cc(Cl)ccc1S(=O)(=O)N[C@H]1CCn2c(nnc2C(F)(F)F)C1 | > 99.5 µM
CCNC(=O)c1cn(CC)c(=O)c(N2CC[C@@H](CO)C2)n1 | > 99.5 µM
C[C@H]1CN(C(=O)c2cccc3c(CN)cccc23)CCC12CCNCC2 | > 99.5 µM
CCn1nccc1S(=O)(=O)N[C@@H](C(=O)Nc1cccc(CN)c1)c1ccc(OCc2ccccc2)cc1 | > 99.5 µM
CCn1ccnc(N2CCC[C@H]2C(=O)O)c1=O | > 99.5 µM
O=C(O)c1cc(Cl)ccc1S(=O)(=O)N[C@H]1CC[C@@H](Oc2cnccn2)CC1 | > 99.5 µM
NCC1CCN(C(=O)c2cc(Cl)cc(NC(=O)OCc3ccccc3)c2)CC1 | > 99.5 µM

Compound | IC50
O=C(O)c1cc(Cl)ccc1S(=O)(=O)NC1CCN(c2ncnc3c2CCC3)CC1 | > 99.5 µM
Cn1ccc(CS(=O)(=O)N[C@@H](C(=O)Nc2cccc(CN)c2)c2ccc(OCc3ccccc3)cc2)n1 | > 99.5 µM
O=C(O)c1cc(Cl)ccc1S(=O)(=O)NC1CCN(S(=O)(=O)Cc2ccccc2)CC1 | > 99.5 µM
O=C(O)c1cc(Cl)ccc1S(=O)(=O)Nc1ccc(C(=O)N2CCCCC2)cc1 | > 99.5 µM
O=C(O)c1cc(Cl)ccc1NS(=O)(=O)c1ccc(-c2ccncc2)cc1 | > 99.5 µM
CN(C)[C@@H]1C[C@H](C(=O)Nc2cccc(CN)c2)CN(C(=O)OCc2ccccc2)C1 | > 99.5 µM
c1cncc(CC2CN(Cc3n[nH]c4ccccc34)C2)c1 | > 99.5 µM
O=C(O)c1cc(Cl)ccc1NS(=O)(=O)c1ccc(-c2cncs2)cc1 | 75.3 µM
O=C(Nc1cc(Cl)cc(C(=O)Nc2cccc(CC3CCNCC3)c2)c1)OCc1ccccc1 | > 99.5 µM
NCc1cccc(NC(=O)C[C@@H](NC(=O)OCc2ccccc2)C2CCCCC2)c1 | 45.2 µM and 44.4 µM
COc1ccc(NS(=O)(=O)c2ccc(Cl)cc2C(=O)O)cc1N1CCCC1=O | > 99.5 µM
O=C(Cn1ccnc(N2CC[C@H](CO)C2)c1=O)Nc1ccccc1 | > 99.5 µM
NCc1cccc(NC(=O)C[C@@H]2[C@H]3CC[C@H](C3)N2C(=O)OCc2ccccc2)c1 | > 99.5 µM
NCc1cccc(NC(=O)[C@H](NC(=O)COc2ccccc2)c2ccc(OCc3ccccc3)cc2)c1 | 55.2 µM
NCCc1ccc(NC(=O)c2cc(Cl)cc(NC(=O)OCc3ccccc3)c2)cc1 | 30.9 µM
Cn1cc(CCOc2ccc([C@@H](NC(=O)OCc3ccccc3)C(=O)Nc3cccc(CN)c3)cc2)nn1 | > 99.5 µM
Cc1cc(NS(=O)(=O)c2ccc(Cl)cc2C(=O)O)nn1Cc1ccccc1 | > 99.5 µM
NCCc1cccc(NC(=O)c2cc(Cl)cc(NC(=O)OCc3ccccc3)c2)c1 | 49.7 µM and 44 µM
Fc1cccc(F)c1-c1n[nH]cc1CN1CCC(c2nc3ccccc3s2)CC1 | > 99.5 µM
COC(=O)Cc1ccccc1-c1ccc(S(=O)(=O)Nc2ccc(Cl)cc2C(=O)O)cc1 | 35.5 µM
N#Cc1ccc(S(=O)(=O)Nc2ccc(Oc3ccccc3Cl)cc2)c(C(=O)O)c1 | 55.7 µM
O=C(O)c1cc(Cl)ccc1S(=O)(=O)Nc1ccc(-c2n[nH]c3c2CCCC3)cc1 | 73.2 µM
O=C(O)c1cc(Cl)ccc1S(=O)(=O)Nc1ccc(N2CCCCC2)c(F)c1 | > 99.5 µM
Cc1cc(C)cc(C(=O)N2CCC(NS(=O)(=O)c3ccc(Cl)cc3C(=O)O)CC2)c1 | > 99.5 µM
O=C(O)c1cc(Cl)ccc1S(=O)(=O)Nc1ccc(S(=O)(=O)N2CCCCC2)cc1 | > 99.5 µM

Compound | IC50
COc1ccc([C@@H](CC(=O)Nc2cccc(CN)c2)NC(=O)OCc2ccccc2)cc1Br | 50.1 µM
COC(=O)c1n[nH]cc1CN1CCC(c2nc3ccccc3s2)CC1 | > 99.5 µM
CCC1([C@H](NC(=O)OCc2ccccc2)C(=O)Nc2cccc(CN)c2)CCCCC1 | > 99.5 µM
CCOC1CC(S(=O)(=O)N[C@H](C(=O)Nc2cccc(CN)c2)c2ccc(OCc3ccccc3)cc2)C1 (stereo partly drawn) | > 99.5 µM
NCc1cccc(NC(=O)[C@H]2[C@@H]3CC[C@@H](C3)[C@H]2NC(=O)OCc2ccccc2)c1 | > 99.5 µM
O=C(O)c1cc(Cl)ccc1S(=O)(=O)Nc1ccc(CN2CCCCC2)cc1 | > 99.5 µM
NCc1cccc(NC(=O)[C@H](NC(=O)CCc2ccccc2)c2ccc(OCc3ccccc3)cc2)c1 | 14.5 µM and 23.3 µM and 22.9 µM
COc1ncc(C(=O)Nc2cccc(CN)c2)cc1NC(=O)OCc1ccccc1 | > 99.5 µM
NCc1cccc(NC(=O)[C@@H](NS(=O)(=O)c2ccccn2)c2ccc(OCc3ccccc3)cc2)c1 | > 99.5 µM
C[C@@H]1C[C@H](NS(=O)(=O)c2ccc(Cl)cc2C(=O)O)C[C@H](C)N1Cc1ccccc1 | > 99.5 µM
CSc1ccc([C@H](CC(=O)Nc2cccc(CN)c2)NC(=O)OCc2ccccc2)cc1 | 44.2 µM
NCc1cccc(NC(=O)c2cc(NC(=O)OCc3ccccc3)cc3c2OC(F)(F)O3)c1 | > 99.5 µM
O=C(O)c1cc(Cl)ccc1S(=O)(=O)NC1CCN(S(=O)(=O)c2cccs2)CC1 | > 99.5 µM
NCCNC(=O)c1cc(Cl)cc(NC(=O)OCc2ccccc2)c1 | > 99.5 µM
NC1CCN(C(=O)c2cc(Cl)cc(NC(=O)OCc3ccccc3)c2)CC1 | > 99.5 µM
c1ccc(-c2ncc(CN3CCC(c4nc5ccccc5s4)CC3)[nH]2)cc1 | > 99.5 µM
Cc1cccc(N2CCC(NS(=O)(=O)c3ccc(Cl)cc3C(=O)O)CC2)n1 | > 99.5 µM
c1ccc2sc(C3CCN([C@H]4Cc5[nH]c6ccccc6c5C4)CC3)nc2c1 | > 99.5 µM
CCn1cc(C(=O)NCc2ccccc2)nc(N2CC[C@@H](CO)C2)c1=O | > 99.5 µM
C[C@@H](N)c1ccc(NC(=O)c2cc(Cl)cc(NC(=O)OCc3ccccc3)c2)cc1 | 48.2 µM
CCn1cc(C(=O)N2CCN(C)CC2)nc(N2CC[C@@H](CO)C2)c1=O | > 99.5 µM
O=C(O)c1cc(Cl)ccc1S(=O)(=O)Nc1ccc(S(=O)(=O)Nc2ccccc2)cc1 | > 99.5 µM
NCc1cccc(NC(=O)[C@@H](NS(=O)(=O)C[C@H]2CCCCO2)c2ccc(OCc3ccccc3)cc2)c1 | > 99.5 µM
O=C(O)c1cc(Cl)c(F)cc1S(=O)(=O)Nc1ccc(Oc2ccccc2Cl)cc1 | 11.2 µM and 10.7 µM
CCc1ncc(CN2CCC(c3nc4ccccc4s3)CC2)[nH]1 | > 99.5 µM

Compound | IC50
c1ccc2sc(C3CCN(Cc4n[nH]c5c4CCCC5)CC3)nc2c1 | > 99.5 µM
COc1ccc(-c2cc(NS(=O)(=O)c3ccc(Cl)cc3C(=O)O)ccc2OC)cc1 | 48.8 µM
COc1n[nH]cc1CN1CCC(c2nc3ccccc3s2)CC1 | > 99.5 µM
O=C(O)c1cc(Cl)ccc1NS(=O)(=O)c1ccc(-c2ccc(F)cc2)cc1 | 12.5 µM
CN(C(=O)OCc1ccccc1)[C@H](C(=O)Nc1cccc(CN)c1)c1ccc(OCc2ccccc2)cc1 | 43.8 µM
CC1(N2CCC(NS(=O)(=O)c3ccc(Cl)cc3C(=O)O)CC2)CCCCC1 | > 99.5 µM
CCCOc1ccc([C@@H](CC(=O)Nc2cccc(CN)c2)NC(=O)OCc2ccccc2)cc1 | 24.7 µM and 59.4 µM
CN(C)c1cc(-c2ccc(S(=O)(=O)Nc3ccc(Cl)cc3C(=O)O)cc2)ccn1 | 87.6 µM
NCc1cccc(NC(=O)[C@@H](NS(=O)(=O)c2ccccc2F)c2ccc(OCc3ccccc3)cc2)c1 | > 99.5 µM
c1ccc2c(CN[C@H]3CCc4c([nH]c5ccccc45)C3)n[nH]c2c1 | > 99.5 µM
CN1CC=C(c2ccc(S(=O)(=O)Nc3ccc(Cl)cc3C(=O)O)cc2)CC1 | > 99.5 µM
CN(C(=O)c1cc(Cl)cc(NC(=O)OCc2ccccc2)c1)c1ccc(CN)cc1 | > 99.5 µM
CC(=O)N1CCC[C@H]1C(=O)N[C@@H](C(=O)Nc1cccc(CN)c1)c1ccc(OCc2ccccc2)cc1 | > 99.5 µM
CS(=O)(=O)c1ccc(-c2cccc([C@H](NC(=O)OCc3ccccc3)C(=O)Nc3cccc(CN)c3)c2)cn1 | > 99.5 µM
c1cncc(C2CC(NCc3n[nH]c4ccccc34)C2)c1 (stereo not drawn) | > 99.5 µM
COc1ccc(NS(=O)(=O)c2ccc(Cl)cc2C(=O)O)cc1S(=O)(=O)N1CCCC1 | > 99.5 µM
N#Cc1ccccc1O[C@H]1CC[C@H](NS(=O)(=O)c2ccc(Cl)cc2C(=O)O)CC1 | > 99.5 µM
O=C(O)c1cc(Cl)ccc1S(=O)(=O)Nc1ccc(F)c(NC(=O)C2CC2)c1 | > 99.5 µM
O=C(O)c1cc(Cl)ccc1S(=O)(=O)NC1CCN(c2nc(C3CC3)cc(C(F)(F)F)n2)CC1 | 15.5 µM
CCc1ccc(S(=O)(=O)N[C@@H](C(=O)Nc2cccc(CN)c2)c2ccc(OCc3ccccc3)cc2)cc1 | 92 µM
CCn1cc(S(=O)(=O)N[C@@H](C(=O)Nc2cccc(CN)c2)c2ccc(OCc3ccccc3)cc2)cn1 | > 99.5 µM
NCc1cccc(NC(=O)c2cc(Br)cc(NC(=O)OCc3ccccc3)c2)c1 | 54.3 µM
O=C(O)c1cc(Cl)ccc1S(=O)(=O)Nc1nn(Cc2ccccc2)cc1Cl | > 99.5 µM
